Experimental data taken from the supplement of paper PMC12592484.

Tests used:
Test in all cases: drug sensitivity score (DSS2, normalised partial AUC of dose-response, 72 h CellTiter-Glo viability) (DSS (dimensionless)); higher = more sensitive (stronger growth inhibition / cytotoxicity); extreme values may be limits of the assay
CAF#6 = test system: CAF#6 (primary prostate cancer-associated fibroblasts of iCAF-like type)
In short: (§1)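 The drug sensitivity score reported here is a partial area under the fitted logistic dose–response curve, divided by the log of the curve's upper asymptote and computed in BREEZE; higher values denote greater sensitivity. Low-passage primary prostate cancer-associated fibroblasts, PF179T, WPMY-1, LNCaP and 22Rv1 cells were seeded into 384-well plates preloaded with compounds at five doses across a 10,000-fold range. CellTiter-Glo 2.0 luminescence gave viability at 72 h, scaled to vehicle and positive-control wells.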

CAF#2 = test system: CAF#2 (primary prostate cancer-associated fibroblasts of iCAF-like type)
In short: as §1

CAF#5 = test system: CAF#5 (primary prostate cancer-associated fibroblasts of myCAF-like type)
In short: as §1

PF179T = test system: PF179T
In short: as §1

CAF#3 = test system: CAF#3 (primary prostate cancer-associated fibroblasts of myCAF-like type)
In short: as §1

CAF#4 = test system: CAF#4 (primary prostate cancer-associated fibroblasts of iCAF-like type)
In short: as §1

WPMY-1 = test system: WPMY-1
In short: as §1

22Rv1 = test system: 22Rv1
In short: as §1

CAF#1 = test system: CAF#1 (primary prostate cancer-associated fibroblasts of myCAF-like type)
In short: as §1

LNCAP = test system: LNCAP
In short: as §1

CAF#7 = test system: CAF#7 (primary prostate cancer-associated fibroblasts of myCAF-like type)
In short: as §1

Row | SMILES | drug sensitivity score (CAF#6) | drug sensitivity score (CAF#2) | drug sensitivity score (CAF#5) | drug sensitivity score (PF179T) | drug sensitivity score (CAF#3) | drug sensitivity score (CAF#4) | drug sensitivity score (WPMY-1) | drug sensitivity score (22Rv1) | drug sensitivity score (CAF#1) | drug sensitivity score (LNCAP) | drug sensitivity score (CAF#7)
1 | COc1ccc(Cn2ccc3ccc(C(=O)NO)cc32)cc1 (tested concentration range 1-10000 nM) | 4.1 | 3.1 | 1.4 | 4.8 | 2.9 | 1.4 | 2.8 | 2.8 | 2.8 | 5.5 | 4
2 | CC(C)(C)c1cc(NC(=O)Nc2ccc(-c3cn4c(n3)sc3cc(OCCN5CCOCC5)ccc34)cc2)no1 [Quizartinib] (tested concentration range 0.1-1000 nM) | 0 | 2.3 | 1.5 | 0 | 0 | 0 | 1.4 | 0 | 0.3 | 0 | 0
3 | CC(C)NC[C@@H](C(=O)N1CCN(c2ncnc3c2[C@H](C)C[C@H]3O)CC1)c1ccc(Cl)cc1 [Ipatasertib] (tested concentration range 1-10000 nM) | 1.7 | 1.2 | 1.1 | 0 | 1.8 | 0.1 | 2 | 5.7 | 0.6 | 22.6 | 0
4 | CCC1=C[C@@H]2CN(C1)Cc1c([nH]c3ccccc13)[C@@](C(=O)OC)(c1cc3c(cc1OC)N(C)[C@H]1[C@@](O)(C(=O)OC)[C@H](OC(C)=O)[C@]4(CC)C=CCN5CC[C@]31[C@@H]54)C2 [Vinorelbine] (tested concentration range 1-10000 nM) | 19.6 | 20.1 | 18.1 | 19.7 | 15.3 | 12.6 | 36.9 | 31.3 | 17.3 | 42 | 26
5 | C[C@@H]1CN(Cc2ccc(F)cc2)[C@@H](C)CN1C(=O)c1cc2c(C(=O)C(=O)N(C)C)cn(C)c2cc1Cl [Talmapimod] (tested concentration range 1-10000 nM) | 0 | 0 | 0 | 0 | 0 | 0 | 0 | 0 | 0 | 1.9 | 0
6 | Clc1ccccc1C(c1ccccc1)(c1ccccc1)n1cccn1 [TRAM-34] (tested concentration range 0.1-1000 nM) | 0 | 0.1 | 0 | 0 | 0 | 0 | 0 | 0 | 0.8 | 0 | 0
7 | CC(=O)c1c(C)c2cnc(Nc3ccc(N4CCNCC4)cn3)nc2n(C2CCCC2)c1=O [Palbociclib] (tested concentration range 1-10000 nM) | 1.4 | 7.4 | 4.9 | 5.1 | 0 | 3.3 | 2.1 | 7.9 | 2.5 | 7.7 | 2
8 | CNC(=O)c1cccc2cc(Oc3ccnc4cc(OCC5(N)CC5)c(OC)cc34)ccc12 [Lucitanib] (tested concentration range 1-10000 nM) | 6.6 | 5.9 | 3.9 | 5.7 | 6.3 | 7.4 | 2.8 | 1.8 | 6 | 3.4 | 13.5
9 | C[C@@H](Oc1ccc2[nH]nc(/C=C/c3cnn(CCO)c3)c2c1)c1c(Cl)cncc1Cl (tested concentration range 0.1-1000 nM) | 10.9 | 7.2 | 6.7 | 8.9 | 9.9 | 5.7 | 8 | 2.9 | 9.7 | 2.5 | 18.7
10 | CCOc1cc2ncc(C#N)c(Nc3ccc(OCc4ccccn4)c(Cl)c3)c2cc1NC(=O)/C=C/CN(C)C [Neratinib] (tested concentration range 0.1-1000 nM) | 3.1 | 2.1 | 0 | 2.4 | 4.6 | 2.5 | 2 | 2.4 | 1.6 | 3.6 | 4.2
11 | CC(C)C[C@H](NC(=O)CNC(=O)c1cc(Cl)ccc1Cl)B(O)O [Ixazomib] (tested concentration range 0.1-1000 nM) | 6 | 6.3 | 7.3 | 4.9 | 7.2 | 5.8 | 16.5 | 10.7 | 4.6 | 12.9 | 7.4
12 | CCCOc1ccn2c(C(C)=O)cc(-c3ccccc3S(C)(=O)=O)c2c1 [GSK2801] (tested concentration range 1-10000 nM) | 0 | 0 | 0.4 | 0 | 0 | 0 | 0 | 0 | 0 | 1.2 | 0
13 | CN1C(=O)N[C@H](Cc2c[nH]c3c(Cl)cccc23)C1=O [Necrostatin 2] (tested concentration range 1-10000 nM) | 0 | 0 | 0 | 0 | 0 | 0 | 0 | 0 | 0 | 0 | 0
14 | CN(C)Cc1c(C(=O)NCCOc2ccc(C(=O)NO)cc2)oc2ccccc12 [Abexinostat] (tested concentration range 1-10000 nM) | 9.9 | 12.2 | 9.3 | 10.6 | 8.9 | 6.9 | 21.6 | 19.8 | 10 | 19.5 | 9
15 | CC(C)C[C@@H](C(=O)N[C@H](C(=O)OC1CCCC1)c1ccccc1)[C@H](O)C(=O)NO [Tosedostat] (tested concentration range 1-10000 nM) | 2.7 | 0.6 | 3.5 | 1.2 | 1 | 0 | 9.3 | 4.4 | 0 | 8.6 | 5.1
16 | Cc1cc2c(F)c(Oc3ncnn4cc(OC[C@@H](C)O)c(C)c34)ccc2[nH]1 [Brivanib] (tested concentration range 0.1-1000 nM) | 0 | 0 | 0 | 0 | 0 | 0 | 0 | 0 | 0 | 1.2 | 0
17 | C=CCc1cccc(/C=N/NC(=O)CN2CCN(Cc3ccccc3)CC2)c1O [PAC-1] (tested concentration range 1-10000 nM) | 1.9 | 3.6 | 1.5 | 3.9 | 1.9 | 0.2 | 6.9 | 4.4 | 0.3 | 3.9 | 2
18 | CNC(=O)c1ccccc1Sc1ccc2c(/C=C/c3ccccn3)n[nH]c2c1 [Axitinib] (tested concentration range 1-10000 nM) | 3.3 | 5.1 | 2 | 0.8 | 5.5 | 4.2 | 4.9 | 1.6 | 2.8 | 5.7 | 5.5
19 | CC(C)c1cc(-c2n[nH]c(=O)n2-c2ccc3c(ccn3C)c2)c(O)cc1O [Ganetespib] (tested concentration range 0.1-1000 nM) | 14.3 | 20.3 | 22.3 | 20.9 | 16.9 | 18.3 | 24.3 | 23.9 | 24.1 | 21.9 | 15.9
20 | C=C1C[C@@H]2CC[C@@]34C[C@H]5O[C@H]6[C@@H](O3)[C@H]3O[C@H](CC[C@@H]3O[C@H]6[C@H]5O4)CC(=O)C[C@@H]3[C@@H](OC)[C@@H](C[C@H](O)CN)O[C@H]3C[C@H]3O[C@@H](CC[C@@H]1O2)C[C@@H](C)C3=C [Eribulin] (tested concentration range 0.1-1000 nM) | 15.3 | 18.3 | 13.7 | 19.4 | 11.8 | 9.6 | 28.9 | 24 | 12.3 | 36.5 | 22.1
21 | CC[C@@H]1[C@H](F)C(=O)N[C@@H]1COc1nccc2cc(C(N)=O)c(OC)cc12 (tested concentration range 1-10000 nM) | 0 | 0.4 | 0 | 0 | 0 | 0 | 0 | 1.4 | 0 | 1.6 | 0.1
22 | CN(C)C/C=C/C(=O)Nc1cc2c(Nc3ccc(F)c(Cl)c3)ncnc2cc1O[C@H]1CCOC1 [Afatinib] (tested concentration range 0.1-1000 nM) | 0 | 0.3 | 0 | 0 | 0 | 0 | 0 | 3.4 | 0.3 | 2.7 | 0
23 | O=C(O)CC[C@H]1CC[C@@](c2cc(F)ccc2F)(S(=O)(=O)c2ccc(Cl)cc2)CC1 [MK-0752] (tested concentration range 0.1-1000 nM) | 0 | 0 | 0 | 0 | 0 | 0 | 0 | 0 | 0 | 0 | 0
24 | Cc1ccc(C(=O)Nc2ccc(Oc3cc4cnn(C)c4cc3-c3cn[nH]c3)c(F)c2)c(=O)n1-c1ccc(F)cc1 [Merestinib] (tested concentration range 0.1-1000 nM) | 3.5 | 5.6 | 3.8 | 5.3 | 3 | 4.4 | 4.3 | 0 | 3 | 0 | 3.9
25 | CO[C@@H]1[C@H](N(C)C(=O)c2ccccc2)C[C@H]2O[C@]1(C)n1c3ccccc3c3c4c(c5c6ccccc6n2c5c31)C(=O)NC4 [Midostaurin] (tested concentration range 1-10000 nM) | 18.3 | 20.7 | 16.5 | 18.4 | 12.5 | 16.1 | 11.9 | 0 | 18.7 | 4.2 | 19.8
